{
  "source": "patent US20100041089A1",
  "about": "“IMPROVED METHOD FOR DETECTING CHEMICAL […]” (priority 2006, published 2010)",
  "tested_on": "yeast genes (expressed mRNA)",
  "test": "DNA chip measurement of expressed mRNA of yeast genes after culture with a toxic chemical substance",
  "format": "cell-based, Saccharomyces cerevisiae S288C",
  "conditions": "for The level of expressed mRNA in the presence of chemical substance/The level of expressed mRNA in the absence of chemical substance: cultured two hours with substance; for level of expressed mRNA in the presence of chemical substance / level in the absence of chemical substance: cultured two hours with the chemical substance",
  "outline": "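Expression is given as treated/untreated fluorescence ratio on a whole-genome yeast DNA chip, a ratio of two or more being significant. Log-phase S288C cultures in YPD at 25 °C received the chemical for 2 h at a dose that slows growth without killing. mRNA was reverse-transcribed with Cy3- or Cy5-dUTP.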",
  "data": [
    {"substance": "Na2As [(1)]", "values": [
      {"measurement": "The level of expressed mRNA in the presence of chemical substance/The level of expressed mRNA in the absence of chemical substance", "setting": "yeast gene YJL151C", "value": 1.0},
      {"measurement": "The level of expressed mRNA in the presence of chemical substance/The level of expressed mRNA in the absence of chemical substance", "setting": "yeast gene YJL152W", "value": 0.9},
      {"measurement": "The level of expressed mRNA in the presence of chemical substance/The level of expressed mRNA in the absence of chemical substance", "setting": "yeast gene YJL161W", "value": 1.7},
      {"measurement": "The level of expressed mRNA in the presence of chemical substance/The level of expressed mRNA in the absence of chemical substance", "setting": "yeast gene YJL171C", "value": 2.3},
      {"measurement": "The level of expressed mRNA in the presence of chemical substance/The level of expressed mRNA in the absence of chemical substance", "setting": "yeast gene YJR008W", "value": 1.6},
      {"measurement": "level of expressed mRNA in the presence of chemical substance / level in the absence of chemical substance", "setting": "yeast gene YJR030C", "value": 0.7},
      {"measurement": "The level of expressed mRNA in the presence of chemical substance/The level of expressed mRNA in the absence of chemical substance", "setting": "yeast gene YJR054W", "value": 0.8},
      {"measurement": "level of expressed mRNA in the presence of chemical substance / level in the absence of chemical substance", "setting": "yeast gene YKL051W", "value": 1.0},
      {"measurement": "The level of expressed mRNA in the presence of chemical substance/The level of expressed mRNA in the absence of chemical substance", "setting": "yeast gene YKL071W", "value": 8.3},
      {"measurement": "The level of expressed mRNA in the presence of chemical substance/The level of expressed mRNA in the absence of chemical substance", "setting": "yeast gene YKL086W", "value": 1.0},
      {"measurement": "level of expressed mRNA in the presence of chemical substance / level in the absence of chemical substance", "setting": "yeast gene YKL097C", "value": 0.9},
      {"measurement": "level of expressed mRNA in the presence of chemical substance / level in the absence of chemical substance", "setting": "yeast gene YKL100C", "value": 0.7},
      {"measurement": "The level of expressed mRNA in the presence of chemical substance/The level of expressed mRNA in the absence of chemical substance", "setting": "yeast gene YKL151C", "value": 1.2},
      {"measurement": "The level of expressed mRNA in the presence of chemical substance/The level of expressed mRNA in the absence of chemical substance", "setting": "yeast gene YKL153W", "value": 1.1},
      {"measurement": "The level of expressed mRNA in the presence of chemical substance/The level of expressed mRNA in the absence of chemical substance", "setting": "yeast gene YKL195W", "value": 0.8},
      {"measurement": "level of expressed mRNA in the presence of chemical substance / level in the absence of chemical substance", "setting": "yeast gene YKR040C", "value": 1.2},
      {"measurement": "The level of expressed mRNA in the presence of chemical substance/The level of expressed mRNA in the absence of chemical substance", "setting": "yeast gene YKR091W", "value": 1.5},
      {"measurement": "The level of expressed mRNA in the presence of chemical substance/The level of expressed mRNA in the absence of chemical substance", "setting": "yeast gene YLR054C", "value": 2.0},
      {"measurement": "The level of expressed mRNA in the presence of chemical substance/The level of expressed mRNA in the absence of chemical substance", "setting": "yeast gene YLR149C", "value": 1.4},
      {"measurement": "The level of expressed mRNA in the presence of chemical substance/The level of expressed mRNA in the absence of chemical substance", "setting": "yeast gene YLR152C", "value": 0.7},
      {"measurement": "The level of expressed mRNA in the presence of chemical substance/The level of expressed mRNA in the absence of chemical substance", "setting": "yeast gene YLR194C", "value": 2.1},
      {"measurement": "level of expressed mRNA in the presence of chemical substance / level in the absence of chemical substance", "setting": "yeast gene YLR226W", "value": 1.0},
      {"measurement": "The level of expressed mRNA in the presence of chemical substance/The level of expressed mRNA in the absence of chemical substance", "setting": "yeast gene YLR324W", "value": 0.7},
      {"measurement": "level of expressed mRNA in the presence of chemical substance / level in the absence of chemical substance", "setting": "yeast gene YLR338W", "value": 1.1},
      {"measurement": "The level of expressed mRNA in the presence of chemical substance/The level of expressed mRNA in the absence of chemical substance", "setting": "yeast gene YLR350W", "value": 1.2},
      {"measurement": "The level of expressed mRNA in the presence of chemical substance/The level of expressed mRNA in the absence of chemical substance", "setting": "yeast gene YLR387C", "value": 0.9},
      {"measurement": "level of expressed mRNA in the presence of chemical substance / level in the absence of chemical substance", "setting": "yeast gene YLR392C", "value": 1.1},
      {"measurement": "level of expressed mRNA in the presence of chemical substance / level in the absence of chemical substance", "setting": "yeast gene YLR415C", "value": 1.1},
      {"measurement": "level of expressed mRNA in the presence of chemical substance / level in the absence of chemical substance", "setting": "yeast gene YLR427W", "value": 0.6},
      {"measurement": "The level of expressed mRNA in the presence of chemical substance/The level of expressed mRNA in the absence of chemical substance", "setting": "yeast gene YLR460C", "value": 2.1},
      {"measurement": "level of expressed mRNA in the presence of chemical substance / level in the absence of chemical substance", "setting": "yeast gene YML013W", "value": 0.8},
      {"measurement": "level of expressed mRNA in the presence of chemical substance / level in the absence of chemical substance", "setting": "yeast gene YML029W", "value": 0.6},
      {"measurement": "level of expressed mRNA in the presence of chemical substance / level in the absence of chemical substance", "setting": "yeast gene YML041C", "value": 1.2},
      {"measurement": "level of expressed mRNA in the presence of chemical substance / level in the absence of chemical substance", "setting": "yeast gene YML079W", "value": 1.0},
      {"measurement": "The level of expressed mRNA in the presence of chemical substance/The level of expressed mRNA in the absence of chemical substance", "setting": "yeast gene YML117W", "value": 0.9},
      {"measurement": "The level of expressed mRNA in the presence of chemical substance/The level of expressed mRNA in the absence of chemical substance", "setting": "yeast gene YMR009W", "value": 2.3},
      {"measurement": "The level of expressed mRNA in the presence of chemical substance/The level of expressed mRNA in the absence of chemical substance", "setting": "yeast gene YMR067C", "value": 0.9},
      {"measurement": "level of expressed mRNA in the presence of chemical substance / level in the absence of chemical substance", "setting": "yeast gene YMR068W", "value": 0.9},
      {"measurement": "level of expressed mRNA in the presence of chemical substance / level in the absence of chemical substance", "setting": "yeast gene YMR071C", "value": 1.0},
      {"measurement": "The level of expressed mRNA in the presence of chemical substance/The level of expressed mRNA in the absence of chemical substance", "setting": "yeast gene YMR090W", "value": 6.9},
      {"measurement": "The level of expressed mRNA in the presence of chemical substance/The level of expressed mRNA in the absence of chemical substance", "setting": "yeast gene YMR095C", "value": 1.1},
      {"measurement": "The level of expressed mRNA in the presence of chemical substance/The level of expressed mRNA in the absence of chemical substance", "setting": "yeast gene YMR097C", "value": 1.5},
      {"measurement": "The level of expressed mRNA in the presence of chemical substance/The level of expressed mRNA in the absence of chemical substance", "setting": "yeast gene YMR102C", "value": 1.0},
      {"measurement": "The level of expressed mRNA in the presence of chemical substance/The level of expressed mRNA in the absence of chemical substance", "setting": "yeast gene YMR107W", "value": 5.0},
      {"measurement": "level of expressed mRNA in the presence of chemical substance / level in the absence of chemical substance", "setting": "yeast gene YMR160W", "value": 0.8},
      {"measurement": "The level of expressed mRNA in the presence of chemical substance/The level of expressed mRNA in the absence of chemical substance", "setting": "yeast gene YMR180C", "value": 1.2},
      {"measurement": "The level of expressed mRNA in the presence of chemical substance/The level of expressed mRNA in the absence of chemical substance", "setting": "yeast gene YMR184W", "value": 1.3},
      {"measurement": "The level of expressed mRNA in the presence of chemical substance/The level of expressed mRNA in the absence of chemical substance", "setting": "yeast gene YMR191W", "value": 1.3},
      {"measurement": "The level of expressed mRNA in the presence of chemical substance/The level of expressed mRNA in the absence of chemical substance", "setting": "yeast gene YMR295C", "value": 1.7},
      {"measurement": "The level of expressed mRNA in the presence of chemical substance/The level of expressed mRNA in the absence of chemical substance", "setting": "yeast gene YMR316W", "value": 3.2},
      {"measurement": "level of expressed mRNA in the presence of chemical substance / level in the absence of chemical substance", "setting": "yeast gene YNL026W", "value": 0.7},
      {"measurement": "The level of expressed mRNA in the presence of chemical substance/The level of expressed mRNA in the absence of chemical substance", "setting": "yeast gene YNL044W", "value": 1.3}
    ]}
  ]
}
